Like-named read-outs stand apart in the source and are kept apart here.
Target: GST-Bcl-2 (Homo sapiens (Human), UniProt P10415)
Assay: Time Resolved-Fluorescence Resonance Energy Transfer (TR-FRET) Bcl-2 binding assay
Summary of the method: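 Ki values derived from TR-FRET displacement of F-Bak peptide from GST-Bcl-2, detected with Tb-labelled anti-GST antibody (ex 340, em 520/495 nm). Compound dilution series started at 50 μM (2× starting concentration); room-temperature incubation 3 hours.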

[1] = GST-Bcl-2 1 nM, F-Bak peptide probe 100 nM, Tb-anti-GST antibody 1 nM, Ki by Wang's equation

GST-Bcl-2, sequence (P10415 whole entry): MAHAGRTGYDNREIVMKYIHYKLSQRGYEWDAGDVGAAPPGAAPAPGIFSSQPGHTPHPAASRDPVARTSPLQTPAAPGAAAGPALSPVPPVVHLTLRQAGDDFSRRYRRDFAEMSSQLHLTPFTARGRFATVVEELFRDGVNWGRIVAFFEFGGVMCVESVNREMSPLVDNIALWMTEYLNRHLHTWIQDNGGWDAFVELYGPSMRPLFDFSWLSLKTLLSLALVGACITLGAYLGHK

Compound O=C(NS(=O)(=O)c1ccc(NCCCN2CCOCC2)c([N+](=O)[O-])c1)c1ccc(N2CCN(Cc3ccccc3-c3ccc(Cl)cc3)CC2)cc1Oc1cccc(CO)c1 [Example 9, 4-(4-((4′-chloro-1,1′-biphenyl-2-yl)methyl)piperazin-1-yl)-2-(3-(hydroxymethyl)phenoxy)-N-((4-((3-morpholin-4-ylpropyl)amino)-3-nitrophenyl)sulfonyl)benzamide] has a Ki [1] of 0.754 nM.

With O=C(NS(=O)(=O)c1ccc(N[C@H]2CC[C@H](N3CCOCC3)CC2)c([N+](=O)[O-])c1)c1ccc(N2CCN(CC3=C(c4ccc(Cl)cc4)CCOCC3)CC2)cc1Oc1cc2cc[nH]c2cc1Cl [Example 315, Trans-2-[(6-chloro-1H-indol-5-yl)oxy]-4-(4-{[5-(4-chlorophenyl)-2,3,6,7-tetrahydrooxepin-4-yl]methyl}piperazin-1-yl)-N-({4-[(4-morpholin-4-ylcyclohexyl)amino]-3-nitrophenyl}sulfonyl)benzamide] the Ki was 4.55 nM.

Work on CN1CCC(Nc2ccc(S(=O)(=O)NC(=O)c3ccc(N4CCN(CC5=C(c6ccc(Cl)cc6)CC(C)(C)CC5)CC4)cc3Oc3cccc(C(F)(F)F)c3)cc2[N+](=O)[O-])CC1 [Example 57, 4-(4-((2-(4-chlorophenyl)-4,4-dimethylcyclohex-1-en-1-yl)methyl)piperazin-1-yl)-N-((4-((1-methylpiperidin-4-yl)amino)-3-nitrophenyl)sulfonyl)-2-(3-(trifluoromethyl)phenoxy)benzamide] yielded a Ki [1] of 0.147 nM.

For O=C(NS(=O)(=O)c1ccc(NCC2CCOCC2)c([N+](=O)[O-])c1)c1ccc(N2CCN(Cc3ccccc3-c3ccc(Cl)cc3)CC2)cc1Oc1cccc(N2CCOCC2)c1 [Example 89, 4-(4-((4′-chloro-1,1′-biphenyl-2-yl)methyl)piperazin-1-yl)-2-(3-morpholin-4-ylphenoxy)-N-((3-nitro-4-((tetrahydro-2H-pyran-4-ylmethyl)amino)phenyl)sulfonyl)benzamide], the Ki [1] was 6.11 nM.

CC1(C)CCC(CN2CCN(c3ccc(C(=O)NS(=O)(=O)c4ccc(OCC5COCCO5)c([N+](=O)[O-])c4)c(Oc4cc5cc[nH]c5cc4Cl)c3)CC2)=C(c2ccc(Cl)cc2)C1 (centres unmarked) [Example 290, 2-[(6-chloro-1H-indol-5-yl)oxy]-4-(4-{[2-(4-chlorophenyl)-4,4-dimethylcyclohex-1-en-1-yl]methyl}piperazin-1-yl)-N-{[4-(1,4-dioxan-2-ylmethoxy)-3-nitrophenyl]sulfonyl}benzamide] showed a Ki [1] of 0.251 nM.

Work on Cn1ccc2c(Oc3cc(N4CCN(Cc5ccccc5-c5ccc(Cl)cc5)CC4)ccc3C(=O)NS(=O)(=O)c3ccc(NCCCN4CCOCC4)c([N+](=O)[O-])c3)cccc21 [Example 68, 4-(4-((4′-chloro-1,1′-biphenyl-2-yl)methyl)piperazin-1-yl)-2-((1-methyl-1H-indol-4-yl)oxy)-N-((4-((3-morpholin-4-ylpropyl)amino)-3-nitrophenyl)sulfonyl)benzamide] yielded a Ki [1] of 5.93 nM.

In the case of CN1CCC(Nc2ccc(S(=O)(=O)NC(=O)c3ccc(N4CCN(CC5=C(c6ccc(Cl)cc6)CC(C)(C)OC5)CC4)cc3Oc3cccc(Br)c3)cc2[N+](=O)[O-])CC1 [Example 160, 2-(3-bromophenoxy)-4-(4-{[4-(4-chlorophenyl)-6,6-dimethyl-5,6-dihydro-2H-pyran-3-yl]methyl}piperazin-1-yl)-N-({4-[(1-methylpiperidin-4-yl)amino]-3-nitrophenyl}sulfonyl)benzamide], the Ki [1] is reported as 0.028 nM.

For O=C(NS(=O)(=O)c1ccc(NCCCN2CCOCC2)c([N+](=O)[O-])c1)c1ccc(N2CCN(Cc3ccccc3-c3ccc(Cl)cc3)CC2)cc1Oc1ccc(Cl)cc1 [Example 13, 4-(4-((4′-chloro-1,1′-biphenyl-2-yl)methyl)piperazin-1-yl)-2-(4-chlorophenoxy)-N-((4-((3-morpholin-4-ylpropyl)amino)-3-nitrophenyl)sulfonyl)benzamide], the Ki [1] was 1.62 nM.

From US8952157B2, “Apoptosis-inducing agents for the treatment of cancer and immune and autoimmune diseases” (AbbVie Inc., priority 2008, dated 2015)
